The record followed here is US20140296065A1, “USE OF 5-FLUOROCYTOSINE AS A FUNGICIDE” (DOW AGROSCIENCES LLC, priority 2008, published 2014).

Molecules are shown by their SMILES. Read-outs that look alike come from different tables or passages of the source.

Common to all, as to format: in vivo
For test [1], the system named is Mycosphaerella graminicola; anamorph: Septoria tritici; Bayer code SEPTTR. The test can be described thus: Leaf Blotch of Wheat fungicidal activity. The conditions noted are these: for pest or weed control at 100 ppm: Zymoseptoria tritici. On the procedure:
(§1) For the following examples, 5-fluorocytosine or a 5-fluorocytosine derivative was either dissolved in acetone or water, and dilutions were performed to obtain desirable rates. The spray solutions contained either 0.01% triton X-100 or 0.1% Trycol 5941. For high-volume spray, plants were sprayed to run-off using an automated booth sprayer. For a low-volume test, fungicide was applied using a track sprayer with application volume of 200 liters/hectare (L/H).
(§2) Plants were inoculated with fungal pathogens either 3 days before compound application (3-day curative test; 3DC) or 1 day after compound application (1-day protectant test; 1DP).
• 1. Evaluation of Fungicidal Activity: Leaf Blotch of Wheat (Mycosphaerella graminicola; anamorph: Septoria tritici; Bayer code SEPTTR):
Wheat plants (variety Yuma) were grown from seed in a greenhouse in 50% mineral soil/50% soil-less Metro mix until the first leaf was fully emerged, with 7-10 seedlings per pot. These plants were inoculated with an aqueous spore suspension of Septoria tritici either prior to or after fungicide treatments. After inoculation the plants were kept in 100% relative humidity (one day in a dark dew chamber followed by two to three days in a lighted dew chamber) to permit spores to germinate and infect the leaf. The plants were then transferred to a greenhouse for disease to develop. • 2. Evaluation of Fungicidal Activity: Glume Blotch of Wheat (Leptosphaeria nodorum; Bayer code LEPTNO; anamorph: Stagonospora nodorum):
(§3) The following tables present the activity of 5-fluorocytosine (Table I) or a 5-fluorocytosine derivative (Table II) when evaluated in these experiments. The effectiveness of 5-fluorocytosine or 5-fluorocytosine derivative in controlling disease was determined by assessing the severity of disease on treated plants, then converting the severity to percent control based on the level of disease on untreated, inoculated plants. • In each case of Tables I and II the rating scale is as follows: […]

For test [2], the system named is Leptosphaeria nodorum; Bayer code LEPTNO; anamorph: Stagonospora nodorum. The test can be described thus: Glume Blotch of Wheat fungicidal activity. The conditions noted are these: 100 ppm. On the procedure: as §1, §2
Wheat plants (variety Yuma) were grown from seed in a greenhouse in 50% mineral soil/50% soil-less Metro mix until the first leaf was fully emerged, with 7-10 seedlings per pot. […]
as §3

Test [3] deals with Cochliobolus sativum; Bayer code COCHSA; anamorph: Helminthosporium sativum. Kind of test: Spot Blotch of Barley fungicidal activity. The conditions noted are these: 200 ppm, 1DP (1-day protectant). The method, then: For the following examples, 5-fluorocytosine or a 5-fluorocytosine derivative was either dissolved in acetone or water, and dilutions were performed to obtain desirable rates. The spray solutions contained either 0.01% triton X-100 or 0.1% Trycol 5941. For high-volume spray, plants were sprayed to run-off using an automated booth sprayer. For a low-volume test, fungicide was applied using a track sprayer with application volume of 200 liters/hectare (L/H). Plants were inoculated with fungal pathogens either 3 days before compound application (3-day curative test; 3DC) or 1 day after compound application (1-day protectant test; 1DP). […] Evaluation of Fungicidal Activity: Leaf Spot of Sugar Beets (Cercospora beticola; Bayer code CERCBE): The following tables present the activity of 5-fluorocytosine (Table I) or a 5-fluorocytosine derivative (Table II) when evaluated in these experiments. The effectiveness of 5-fluorocytosine or 5-fluorocytosine derivative in controlling disease was determined by assessing the severity of disease on treated plants, then converting the severity to percent control based on the level of disease on untreated, inoculated plants. • In each case of Tables I and II the rating scale is as follows: […]

Test [4] has as its system Mycosphaerella fijiensis; BAYER code MYCOFI. The test can be described thus: Black Sigatoka Disease of Banana fungicidal activity. On the procedure:
as §1
Plants were inoculated with fungal pathogens either 3 days before compound application (3-day curative test; 3DC) or 1 day after compound application (1-day protectant test; 1DP). […]
Efficacy against Mycosphaerella fijiensis was tested using newly emerged leaves of field grown banana plants. […] The leaves were subsequently allowed to become infected by natural inoculum, and were visually assessed for percent disease control ˜40-45 days later.
as §3

In test [5] the test system is Cercospora beticola; Bayer code CERCBE. The test can be described thus: Leaf Spot of Sugar Beets fungicidal activity. The conditions noted are these: 100 ppm, 1DP (1-day protectant).
Test [6] relates to Glomerella lagenarium; anamorph: Colletotrichum lagenarium; Bayer code COLLLA. The test can be described thus: Cucumber Anthracnose fungicidal activity. The settings on record: 200 ppm, 1DP (1-day protectant).
Test [7] deals with Venturia inaequalis; Bayer code VENTIN. Kind of test: Apple Scab fungicidal activity. The conditions noted are these: 75 ppm.
Where [8] appears, read: 24 h, read-out: SEPTTR 100 PPM 1DP.
[9] abbreviates: 72 h, read-out: SEPTTR 100 PPM 3DC.
[10] abbreviates: 24 h, SEPTTR, wheat, 100 ppm, One-Day Protectant (1DP), % disease control rating, read-out: SEPTTR 100 PPM 1DP.
[11] abbreviates: 72 h, SEPTTR, wheat, 100 ppm, Three-Day Curative (3DC), % disease control rating, read-out: SEPTTR 100 PPM 3DC.

As for `O=C(Nc1nc(O)ncc1F)Oc1ccccc1` [Cmpd 16], the pest or weed control at 100 ppm in test [1] (setting [8]) and in test [1] (setting [9]) was 76 to 100% throughout.

Take `CCC(=O)Nc1nc(O)ncc1F` [Cmpd 3]: the pest or weed control at 100 ppm in test [1] (setting [10]) and in test [1] (setting [11]) was 76 to 100% each time.

`CCCC(=O)Nc1nc(O)ncc1F` [Cmpd 11]: the pest or weed control at 100 ppm in test [1] (setting [10]) and in test [1] (setting [11]) was 76 to 100% throughout.

Consider `O=C(Nc1nc(O)ncc1F)c1cccc(Br)c1` [Cmpd 23], for which the pest or weed control at 100 ppm in test [1] (setting [10]) is 26 to 50%; in test [1] (setting [11]) it was 0 to 25%.

For the compound `Nc1nc(=O)[nH]cc1F` [5-FC, 5-Fluorocytosine], the “% Disease Control of 5-FC” value in test [1] (SEPTTR, wheat, 100 ppm, 3DC (3-day curative)) is on record as “A (76-100)”; in test [1] (SEPTTR, wheat, 200 ppm, 1DP (1-day protectant)), “A (76-100)”; in test [2] (1DP (1-day protectant)) it was “D (0-25)”; in test [2] (3DC (3-day curative)), “C (26-50)”; in test [3], “C (26-50)”; in test [4] (100 ppm, 3DC (3-day curative)) it was “B (51-75)”. Moreover, the “% Disease Control of 5-FC” value in test [4] (200 ppm, 1DP (1-day protectant)) was “B (51-75)”; in test [5] it was “A (76-100)”; in test [6], “A (76-100)”; in test [7] (1DP (1-day protectant)), “A (76-100)”; in test [7] (3DC (3-day curative)) it was “A (76-100)”.

With `O=C(Nc1nc(O)ncc1F)c1ccc(Cl)cc1` [Cmpd 6], the results for the pest or weed control at 100 ppm in test [1] (setting [10]) and in test [1] (setting [11]) were 76 to 100% and 26 to 50%, respectively.

For the compound `COC(=O)Nc1nc(O)ncc1F` [Cmpd 14], the values for the pest or weed control at 100 ppm in test [1] (setting [10]) and in test [1] (setting [11]) were 26 to 50% and 0 to 25%, respectively.

`Cc1ccc(OC(=O)Nc2nc(O)ncc2F)cc1` [Cmpd 15]: the results for the pest or weed control at 100 ppm in test [1] (setting [8]) and in test [1] (setting [9]) were 76 to 100% and 51 to 75%, respectively.

As for `COc1ccc(C(=O)Nc2nc(O)ncc2F)cc1` [Cmpd 20], the pest or weed control at 100 ppm in test [1] (setting [10]) and in test [1] (setting [11]) was 0 to 25% in each case.

With `CCCCCCCCCCCC(=O)Nc1nc(O)ncc1F` [Cmpd 9], the pest or weed control at 100 ppm in test [1] (setting [10]) lay within 76 to 100%; in test [1] (setting [11]) it was 26 to 50%.

Turning to `CNc1nc(O)ncc1F` [Cmpd 18], the pest or weed control at 100 ppm in test [1] (setting [10]) was 0 to 25%; in test [1] (setting [11]), 51 to 75%.

In the case of `CC(C)COC(=O)Nc1nc(O)ncc1F` [Cmpd 7], the pest or weed control at 100 ppm in test [1] (setting [10]) and in test [1] (setting [11]) was 51 to 75% each time.

As for `CC(C)C(=O)Nc1nc(O)ncc1F` [Cmpd 13], the pest or weed control at 100 ppm in test [1] (setting [10]) and in test [1] (setting [11]) was 76 to 100% each time.

As for `Cc1ccc(C(=O)Nc2nc(O)ncc2F)cc1` [Cmpd 5], the values for the pest or weed control at 100 ppm in test [1] (setting [10]) and in test [1] (setting [11]) were 76 to 100% and 51 to 75%, respectively.

With `CCCCCC(=O)Nc1nc(O)ncc1F` [Cmpd 8], the pest or weed control at 100 ppm in test [1] (setting [10]) and in test [1] (setting [11]) was 76 to 100% throughout.

`CCCCCOC(=O)Nc1nc(O)ncc1F` [Cmpd 19]: the pest or weed control at 100 ppm in test [1] (setting [10]) and in test [1] (setting [11]) was 0 to 25% each time.

Consider `O=C(Nc1nc(O)ncc1F)c1ccccc1` [Cmpd 12], for which the pest or weed control at 100 ppm in test [1] (setting [10]) and in test [1] (setting [11]) was 76 to 100% in each case.

As for `O=C(Nc1nc(O)ncc1F)c1ccccc1Cl` [Cmpd 24], the pest or weed control at 100 ppm in test [1] (setting [10]) and in test [1] (setting [11]) was 26 to 50% throughout.

In the case of `CCONc1nc(O)ncc1F` [Cmpd 17], the pest or weed control at 100 ppm in test [1] (setting [10]) fell in the range of 26 to 50%; in test [1] (setting [11]) it was 76 to 100%.

Regarding `COc1ccccc1C(=O)Nc1nc(O)ncc1F` [Cmpd 22], the pest or weed control at 100 ppm in test [1] (setting [10]) and in test [1] (setting [11]) was 0 to 25% throughout.

With `CCC(CC)C(=O)Nc1nc(O)ncc1F` [Cmpd 10], the pest or weed control at 100 ppm in test [1] (setting [10]) is 26 to 50%; in test [1] (setting [11]) it was 0 to 25%.

`COc1cccc(C(=O)Nc2nc(O)ncc2F)c1` [Cmpd 21]: the pest or weed control at 100 ppm in test [1] (setting [10]) and in test [1] (setting [11]) was 0 to 25% throughout.

Take `CC(C)(C)C(=O)Nc1nc(O)ncc1F` [Cmpd 4]: the pest or weed control at 100 ppm in test [1] (setting [10]) and in test [1] (setting [11]) was 76 to 100% in each case.

In the case of `CC(=O)Nc1nc(O)ncc1F` [Cmpd 2], the pest or weed control at 100 ppm in test [1] (setting [10]) and in test [1] (setting [11]) was 76 to 100% throughout.
